According to patent US9782367B2, “Process for obtaining a modafinil-based pharmaceutical composition, resulting pharmaceutical composition and use thereof” (DEBREGEAS ET ASSOCIES PHARMA, priority 2012, dated 2017):

Experiments:
[1] = cited from earlier work
[2] = estimated; absolute bioavailability could not be determined; cited from earlier work
[3] = cited from earlier work; remark: listed apart in the source
[4] = solubility in supercritical fluid (CO2 or tetrafluoroethane); format: physicochemical; conditions: supercritical CO2, FIG. 1
Source text: From among these supercritical fluids, mention may be made of CO2: the technology of supercritical CO2 is based on the solvent power of CO2 which may be modulated at will depending on the pressure and temperature conditions applied to it.
A method for extraction with supercritical CO2 operates in a closed circuit. It includes pressurizing units (pumps) and a temperature-setting unit (exchangers) in order to bring CO2 above its critical point.
The product to be treated is placed in an extractor crossed by the supercritical CO2 flow. Molecules which are soluble in supercritical CO2, therefore extractable, are not very polar compounds with a low molecular mass.
The table below repeats the result when using S modafinil, and mannitol instead of anhydrous lactose; further the loading level was increased to about 30%.

Row | Compound | elimination half life ([1]; in humans) | bioavailability [2] | solubility in methanol and acetone ([3]; methanol and acetone) | solubility in water ([3]; water) | solubility in CO2 [4] | AUC compared with the racemic form ([1]; after administration) | variability in plasma levels compared with the racemic form ([1]; after administration)
1 | NC(=O)C[S+]([O-])C(c1ccccc1)c1ccccc1 (racemic) [Modafinil] | about 14 hours | about 40% | partly soluble | practically insoluble | acceptable solubility |  | 
2 | NC(=O)C[S@@+]([O-])C(c1ccccc1)c1ccccc1 (single isomer, unassigned) [levo-rotatory enantiomer (R)] |  |  |  |  |  | larger AUC than the racemic form | less variability
